Measured values: ChEMBL document CHEMBL5532661, “Discovery of a Novel Glucagon-like Peptide-1 (GLP-1) Analogue from Bullfrog and Investigation of Its Potential for Designing GLP-1-Based Multiagonists” (J Med Chem, 2024)
pEC50: −log10 of the molar value. The source made the active and inactive calls. The calls are words filed in the database; no cut-off is given here. Numbered stars: 1 amine (or outer) side, 2 acyl side, 3 side chain; on linkers, the order of the positions; unused ones are H or OH. Square brackets hold non-standard residues; d marks the D form. Side chains are listed from the residue outwards. Peptide text beside a SMILES is read from it. * marks the point of attachment. C18 diacid = O=C(O)CCCCCCCCCCCCCCCCC(=O)*; γGlu = O=C(O)[C@H](CCC(=O)[*:2])N[*:1]; AEEA = NCCOCCOCC(=O)O; Aib = CC(C)(N)C(=O)O

Experiments:
Mus musculus [1] = assay: Anorexigenic effect in ICR mouse assessed as decrease in food intake at 30 nmol/kg, sc measured upto 72 hrs by acute food intake study; type: functional, organism-based
[2] = biological target: T1, Glucagon-like peptide 1 receptor (Homo sapiens, UniProt P43220); assay: Agonist activity at human GLP-1 receptor expressed in HEK293 cells assessed as cAMP level measured after 60 mins by HTRF based assay; type: functional, cell-based
T1 sequence (P43220 whole entry): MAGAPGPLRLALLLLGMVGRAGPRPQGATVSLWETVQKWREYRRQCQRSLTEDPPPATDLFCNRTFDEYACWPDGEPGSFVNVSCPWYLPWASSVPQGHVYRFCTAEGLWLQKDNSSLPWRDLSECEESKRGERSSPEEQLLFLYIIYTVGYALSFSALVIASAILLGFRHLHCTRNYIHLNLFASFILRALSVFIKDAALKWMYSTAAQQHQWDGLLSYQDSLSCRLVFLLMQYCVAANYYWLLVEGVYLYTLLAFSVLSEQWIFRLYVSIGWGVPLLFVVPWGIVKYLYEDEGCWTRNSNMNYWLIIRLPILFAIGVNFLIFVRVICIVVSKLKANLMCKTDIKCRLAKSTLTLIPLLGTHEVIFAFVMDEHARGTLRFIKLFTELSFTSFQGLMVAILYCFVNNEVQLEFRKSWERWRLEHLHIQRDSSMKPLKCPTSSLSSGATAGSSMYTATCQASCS

Mus musculus [3] = assay: Antihyperglycemic effect in DIO mouse assessed as antihyperglycemic duration by measuring blood glucose at 30 nmol/kg, sc administered twice daily measured by hypoglycemic duration assay; type: functional, organism-based
Mus musculus [4] = assay: Hypoglycemic effect in ICR mouse treated with 3 g/kg glucose assessed as reduction in blood glucose level at 100 nmol/kg, sc measured upto 120 mins by acute glucose lowering test; type: functional, organism-based
[5] = biological target: T1, Glucagon-like peptide 1 receptor; assay: Potency index, ratio of Semaglutide EC50 to test compound EC50 for agonist activity at human GLP-1 receptor expressed in HEK293 cells assessed as cAMP level measured after 60 mins by HTRF based assay; type: functional, cell-based; details: filed as agonist
Mus musculus [6] = assay: Reduction in blood glucose level in non-fasting DIO mouse at 30 nmol/kg, sc treated every 2 and half day once measured after 21 days by glucose tolerance test; type: functional, organism-based; details: time 21.0 day
Mus musculus [7] = assay: Antihyperglycemic effect in non-fasted DIO mouse assessed as decrease in blood glucose at 30 nmol/kg, sc measured upto 48 hrs; type: functional, organism-based
Mus musculus [8] = assay: Hypoglycemic effect in ICR mouse treated with 3 g/kg glucose assessed as reduction in blood glucose level at 30 nmol/kg, sc measured upto 120 mins pretreated with GLP-1R antagonist by OGTT; type: functional, organism-based
Mus musculus [9] = assay: Reduction in total cholesterol in DIO mouse at 30 nmol/kg, sc treated every 2 and half day once measured after 21 days; type: functional, organism-based; details: time 21.0 day
Mus musculus [10] = assay: Reduction in total fat mass in DIO mouse at 30 nmol/kg, sc treated every 2 and half day once measured after 21 days; type: functional, organism-based; details: time 21.0 day
Mus musculus [11] = assay: Anorexigenic effect in sc dosed ICR mouse assessed as decrease in food intake measured upto 72 hrs by acute food intake study; type: functional, organism-based; details: dose 10-100 nmol/kg
Mus musculus [12] = assay: Reduction in hepatic lipid content in DIO mouse at 30 nmol/kg, sc treated every 2 and half day once measured after 21 days by H and E staining based assay; type: functional, organism-based; details: time 21.0 day
Mus musculus [13] = assay: Antihyperglycemic effect in DIO mouse assessed as prolonged antihyperglycemic duration by measuring blood glucose at 100 nmol/kg, sc; type: functional, organism-based
Mus musculus [14] = assay: Reduction in serum triglyceride in DIO mouse at 30 nmol/kg, sc treated every 2 and half day once measured after 21 days; type: functional, organism-based; details: time 21.0 day
Mus musculus [15] = assay: Reduction in serum AST in DIO mouse at 30 nmol/kg, sc treated every 2 and half day once measured after 21 days; type: functional, organism-based; details: time 21.0 day
Mus musculus [16] = assay: Anorexigenic effect in ICR mouse assessed as decrease in food intake at 30 nmol/kg, sc measured at 48 hrs by acute food intake study; type: functional, organism-based
Mus musculus [17] = assay: Reduction in body weight in DIO mouse at 30 nmol/kg, sc treated every 2 and half day once measured after 21 days; type: functional; design: scale not given: the % may be the effect or the level left; details: time 21 day
Mus musculus [18] = assay: Anorexigenic effect in ICR mouse assessed as decrease in food intake at 10 nmol/kg, sc measured upto 72 hrs by acute food intake study; type: functional, organism-based
Mus musculus [19] = assay: Reduction in serum ALT in DIO mouse at 30 nmol/kg, sc treated every 2 and half day once measured after 21 days; type: functional, organism-based; details: time 21.0 day
Mus musculus [20] = assay: Antihyperglycemic effect in DIO mouse assessed as antihyperglycemic duration by measuring blood glucose at 30 nmol/kg, sc measured after 48 hrs by hypoglycemic duration assay; type: functional, organism-based

CC[C@H](C)[C@H](NC(=O)[C@H](CC(C)C)NC(=O)[C@H](Cc1c[nH]c2ccccc12)NC(=O)[C@H](CC(=O)O)NC(=O)[C@@H](NC(=O)[C@H](Cc1ccccc1)NC(=O)[C@H](CCC(=O)O)NC(=O)[C@H](CCCCNC(=O)COCCOCCNC(=O)COCCOCCNC(=O)CC[C@H](NC(=O)CCCCCCCCCCCCCCCCC(=O)O)C(=O)O)NC(=O)[C@H](C)NC(=O)[C@H](C)NC(=O)[C@H](CCC(=O)O)NC(=O)[C@H](CCC(=O)O)NC(=O)[C@H](CCC(=O)O)NC(=O)[C@H](CC(C)C)NC(=O)[C@H](Cc1ccc(O)cc1)NC(=O)[C@H](CO)NC(=O)[C@H](CO)NC(=O)[C@H](CCSC)NC(=O)[C@H](CC(=O)O)NC(=O)[C@H](CO)NC(=O)[C@@H](NC(=O)[C@H](Cc1ccccc1)NC(=O)[C@@H](NC(=O)CNC(=O)[C@H](CC(=O)O)NC(=O)C(C)(C)NC(=O)[C@@H](N)Cc1c[nH]cn1)[C@@H](C)O)[C@@H](C)O)C(C)C)C(=O)N[C@@H](CCCCN)C(=O)NCC(=O)N[C@@H](CCCNC(=N)N)C(=O)N1CCC[C@H]1C(=O)N[C@@H](C)C(N)=O (H-H[Aib]DGTFTSDMSSYLEEEAAK([AEEA-AEEA-γGlu-C18 diacid])EFVDWLIKGRPA-NH2)
Activity (Mus musculus [1]): Active | pEC50 [2]: 10.72 | Activity (Mus musculus [3]): Active | Activity (Mus musculus [4]): Active | Ratio EC50 [5]: 2.8 | Activity (Mus musculus [6]): Active | Activity (Mus musculus [7]): Active | Activity (Mus musculus [8]): inactive | Activity (Mus musculus [9]): Active | Activity (Mus musculus [10]): Active | Activity (Mus musculus [11]): Dose-Dependent Effect | Activity (Mus musculus [12]): Active | Activity (Mus musculus [13]): Active | Activity (Mus musculus [14]): Active | Activity (Mus musculus [15]): Active | Activity (Mus musculus [16]): Active | Activity (Mus musculus [17]): 24.9% | Activity (Mus musculus [18]): Active | Activity (Mus musculus [19]): Active | Activity (Mus musculus [20]): Active
